In ChEMBL document CHEMBL4308841, “Synthesis, in vitro antiproliferative activity, and kinase inhibitory effects of pyrazole-containing diarylureas and diarylamides” (Eur J Med Chem, 2018):

How the values were obtained:
[1] = test system: SK-MEL-28; experiment: Growth inhibition of human SK-MEL-28 cells incubated for 48 hrs by sulforhodamine B assay; assay type: functional, cell-based; settings: SK-MEL-28, 48 h
[2] = test system: MDA-MB-231; experiment: Growth inhibition of human MDA-MB-231 cells incubated for 48 hrs by sulforhodamine B assay; assay type: functional, cell-based; settings: MDA-MB-231, 48 h
[3] = test system: Hs-578T; experiment: Growth inhibition of human Hs578T cells assessed as cell growth at 1 uM incubated for 48 hrs by sulforhodamine B assay relative to control; assay type: functional; settings: read-out: Activity
[4] = test system: HT-29; experiment: Growth inhibition of human HT-29 cells assessed as cell growth at 0.01 uM incubated for 48 hrs by sulforhodamine B assay relative to control; assay type: functional; settings: HT-29, 48 h, read-out: Activity
[5] = test system: SF-295; experiment: Growth inhibition of human SF295 cells assessed as cell growth at 100 uM incubated for 48 hrs by sulforhodamine B assay relative to control; assay type: functional; settings: SF-295, 48 h, read-out: Activity
[6] = test system: NCI-H322M; experiment: Growth inhibition of human NCI-H322M cells assessed as cell growth at 100 uM incubated for 48 hrs by sulforhodamine B assay relative to control; assay type: functional; settings: read-out: Activity
[7] = test system: UACC-62; experiment: Growth inhibition of human UACC62 cells assessed as cell growth at 1 uM incubated for 48 hrs by sulforhodamine B assay relative to control; assay type: functional; settings: UACC-62, 48 h, read-out: Activity
[8] = test system: NCI-H522; experiment: Growth inhibition of human NCI-H522 cells assessed as cell growth at 1 uM incubated for 48 hrs by sulforhodamine B assay relative to control; assay type: functional; settings: NCI-H522, 48 h, read-out: Activity
[9] = test system: SR; experiment: Growth inhibition of human SR cells assessed as cell growth at 1 uM incubated for 48 hrs by sulforhodamine B assay relative to control; assay type: functional; settings: read-out: Activity
[10] = test system: HOP-62; experiment: Growth inhibition of human HOP62 cells incubated for 48 hrs by sulforhodamine B assay; assay type: functional, cell-based; settings: HOP-62, 48 h
[11] = test system: OVCAR-4; experiment: Growth inhibition of human OVCAR4 cells incubated for 48 hrs by sulforhodamine B assay; assay type: functional, cell-based; settings: OVCAR-4, 48 h
[12] = test system: Hs-578T; experiment: Growth inhibition of human Hs578T cells assessed as cell growth at 0.1 uM incubated for 48 hrs by sulforhodamine B assay relative to control; assay type: functional; settings: read-out: Activity
[13] = test system: SNB-19; experiment: Growth inhibition of human SNB19 cells incubated for 48 hrs by sulforhodamine B assay; assay type: functional, cell-based; settings: SNB-19, 48 h
[14] = test system: SW-620; experiment: Growth inhibition of human SW620 cells assessed as cell growth at 100 uM incubated for 48 hrs by sulforhodamine B assay relative to control; assay type: functional; settings: SW-620, 48 h, read-out: Activity
[15] = test system: T47D; experiment: Growth inhibition of human T47D cells assessed as cell growth at 0.01 uM incubated for 48 hrs by sulforhodamine B assay relative to control; assay type: functional; settings: read-out: Activity
[16] = test system: A498; experiment: Growth inhibition of human A498 cells incubated for 48 hrs by sulforhodamine B assay; assay type: functional, cell-based; settings: A498, 48 h
[17] = test system: HCC 2998; experiment: Growth inhibition of human HCC2998 cells assessed as cell growth at 0.01 uM incubated for 48 hrs by sulforhodamine B assay relative to control; assay type: functional; settings: HCC 2998, 48 h, read-out: Activity
[18] = test system: Malme-3M; experiment: Growth inhibition of human MALME-3M cells assessed as cell growth at 0.01 uM incubated for 48 hrs by sulforhodamine B assay relative to control; assay type: functional; settings: read-out: Activity
[19] = test system: HCT-15; experiment: Growth inhibition of human HCT15 cells assessed as cell growth at 0.1 uM incubated for 48 hrs by sulforhodamine B assay relative to control; assay type: functional; settings: HCT-15, 48 h, read-out: Activity
[20] = test system: NCI-H460; experiment: Growth inhibition of human NCI-H460 cells assessed as cell growth at 0.1 uM incubated for 48 hrs by sulforhodamine B assay relative to control; assay type: functional; settings: NCI-H460, 48 h, read-out: Activity
[21] = test system: OVCAR-8; experiment: Growth inhibition of human OVCAR8 cells assessed as cell growth at 0.01 uM incubated for 48 hrs by sulforhodamine B assay relative to control; assay type: functional; settings: OVCAR-8, 48 h, read-out: Activity
[22] = test system: A498; experiment: Growth inhibition of human A498 cells assessed as cell growth at 1 uM incubated for 48 hrs by sulforhodamine B assay relative to control; assay type: functional; settings: A498, 48 h, read-out: Activity
[23] = test system: Malme-3M; experiment: Growth inhibition of human MALME-3M cells assessed as cell growth at 0.1 uM incubated for 48 hrs by sulforhodamine B assay relative to control; assay type: functional; settings: read-out: Activity
[24] = test system: LOX IMVI; experiment: Growth inhibition of human LOXIMVI cells assessed as cell growth at 100 uM incubated for 48 hrs by sulforhodamine B assay relative to control; assay type: functional; settings: read-out: Activity
[25] = test system: M14; experiment: Growth inhibition of human M14 cells incubated for 48 hrs by sulforhodamine B assay; assay type: functional, cell-based; settings: M14, 48 h
[26] = test system: BT-549; experiment: Growth inhibition of human BT549 cells assessed as cell growth at 1 uM incubated for 48 hrs by sulforhodamine B assay relative to control; assay type: functional; settings: BT-549, 48 h, read-out: Activity
[27] = test system: NCI-H460; experiment: Growth inhibition of human NCI-H460 cells assessed as cell growth at 0.01 uM incubated for 48 hrs by sulforhodamine B assay relative to control; assay type: functional; settings: NCI-H460, 48 h, read-out: Activity
[28] = test system: MCF7; experiment: Growth inhibition of human MCF7 cells incubated for 48 hrs by sulforhodamine B assay; assay type: functional, cell-based; settings: MCF7, 48 h
[29] = read-out: LC50 (the source's name)
[30] = read-out: pLC50 (the source's name) (converted)

COc1cc(Cl)cc(-c2nn(-c3cccc(NC(=O)Nc4cccc(C(F)(F)F)c4)c3)cc2-c2ccncc2)c1
GI50 ([1]; read-out: GI50): 2.53 µM
CC50 [1, 29]: > 100 µM
TGI ([1]; read-out: TGI): 12.1 µM
GI50 ([1]; read-out: pGI50 (converted)): 2.51 µM
CC50 [1, 30]: > 100 µM
TGI ([1]; read-out: pTGI (converted)): 12 µM
GI50 ([2]; read-out: GI50): 1.59 µM
CC50 [2, 29]: > 100 µM
TGI ([2]; read-out: TGI): 49.1 µM
GI50 ([2]; read-out: pGI50 (converted)): 1.58 µM
CC50 [2, 30]: > 100 µM
TGI ([2]; read-out: pTGI (converted)): 4.9 µM
growth at 1 µM [3]: 90%
growth at 0.01 µM [4]: 102%
growth at 100 µM [5]: -53%
growth at 100 µM [6]: -8%
growth at 1 µM [7]: 70%
growth at 1 µM [8]: 33%
growth at 1 µM [9]: 55%
GI50 ([10]; read-out: GI50): 2.51 µM
CC50 [10, 29]: > 100 µM
TGI ([10]; read-out: TGI): 13.1 µM
GI50 ([10]; read-out: pGI50 (converted)): 2.82 µM
CC50 [10, 30]: > 100 µM
TGI ([10]; read-out: pTGI (converted)): 13.2 µM
GI50 ([11]; read-out: GI50): 2.54 µM
CC50 [11, 29]: > 100 µM
TGI ([11]; read-out: TGI): 38.8 µM
GI50 ([11]; read-out: pGI50 (converted)): 2.51 µM
CC50 [11, 30]: > 100 µM
TGI ([11]; read-out: pTGI (converted)): 38.9 µM
growth at 0.1 µM [12]: 93%
GI50 ([13]; read-out: GI50): 2.77 µM
CC50 [13, 29]: > 100 µM
TGI ([13]; read-out: TGI): 35.9 µM
GI50 ([13]; read-out: pGI50 (converted)): 2.75 µM
CC50 [13, 30]: > 100 µM
TGI ([13]; read-out: pTGI (converted)): 35.5 µM
growth at 100 µM [14]: -11%
growth at 0.01 µM [15]: 97%
GI50 ([16]; read-out: GI50): 2.25 µM
CC50 [16, 29]: > 100 µM
TGI ([16]; read-out: TGI): 25.5 µM
GI50 ([16]; read-out: pGI50 (converted)): 2.24 µM
CC50 [16, 30]: > 100 µM
TGI ([16]; read-out: pTGI (converted)): 25.7 µM
growth at 0.01 µM [17]: 98%
growth at 0.01 µM [18]: 95%
growth at 0.1 µM [19]: 83%
growth at 0.1 µM [20]: 102%
growth at 0.01 µM [21]: 97%
growth at 1 µM [22]: 75%
growth at 0.1 µM [23]: 50%
growth at 100 µM [24]: -53%
GI50 ([25]; read-out: GI50): 1.34 µM
CC50 [25, 29]: 15.3 µM
TGI ([25]; read-out: TGI): 30.5 µM
GI50 ([25]; read-out: pGI50 (converted)): 1.35 µM
CC50 [25, 30]: 16.2 µM
TGI ([25]; read-out: pTGI (converted)): 3.98 µM
growth at 1 µM [26]: 93%
growth at 0.01 µM [27]: 102%
GI50 ([28]; read-out: GI50): 1.48 µM
LC50 ([28]; read-out: LC50): > 100 µM
TGI ([28]; read-out: TGI): 75.7 µM
GI50 ([28]; read-out: pGI50 (converted)): 1.48 µM
LC50 ([28]; read-out: pLC50 (converted)): > 100 µM
TGI ([28]; read-out: pTGI (converted)): 7.59 µM
